From patent US9790219B2, “Compounds, compositions, and methods for increasing CFTR activity” (Proteostasis Therapeutics, Inc., priority 2014, dated 2017)

Columns and labels:
ΔF508-CFTR [1] = molecular target: T1, ΔF508-CFTR (Homo sapiens, UniProt P13569, DEL508-508); test: Ussing measurements; format: cell-based; conditions: CFTRinh-172 inhibitable short-circuit current, primary hBE homozygous ΔF508, 24 h treatment
T1 construct: Primary lung epithelial cells homozygous for the Cystic Fibrosis-causing ΔF508 mutation; endogenous in cells; host or cells: primary human lung (bronchial) epithelial cells homozygous for ΔF508, differentiated at air-liquid interface
T1 sequence (P13569 with tags, fused parts or gaps DEL508-508): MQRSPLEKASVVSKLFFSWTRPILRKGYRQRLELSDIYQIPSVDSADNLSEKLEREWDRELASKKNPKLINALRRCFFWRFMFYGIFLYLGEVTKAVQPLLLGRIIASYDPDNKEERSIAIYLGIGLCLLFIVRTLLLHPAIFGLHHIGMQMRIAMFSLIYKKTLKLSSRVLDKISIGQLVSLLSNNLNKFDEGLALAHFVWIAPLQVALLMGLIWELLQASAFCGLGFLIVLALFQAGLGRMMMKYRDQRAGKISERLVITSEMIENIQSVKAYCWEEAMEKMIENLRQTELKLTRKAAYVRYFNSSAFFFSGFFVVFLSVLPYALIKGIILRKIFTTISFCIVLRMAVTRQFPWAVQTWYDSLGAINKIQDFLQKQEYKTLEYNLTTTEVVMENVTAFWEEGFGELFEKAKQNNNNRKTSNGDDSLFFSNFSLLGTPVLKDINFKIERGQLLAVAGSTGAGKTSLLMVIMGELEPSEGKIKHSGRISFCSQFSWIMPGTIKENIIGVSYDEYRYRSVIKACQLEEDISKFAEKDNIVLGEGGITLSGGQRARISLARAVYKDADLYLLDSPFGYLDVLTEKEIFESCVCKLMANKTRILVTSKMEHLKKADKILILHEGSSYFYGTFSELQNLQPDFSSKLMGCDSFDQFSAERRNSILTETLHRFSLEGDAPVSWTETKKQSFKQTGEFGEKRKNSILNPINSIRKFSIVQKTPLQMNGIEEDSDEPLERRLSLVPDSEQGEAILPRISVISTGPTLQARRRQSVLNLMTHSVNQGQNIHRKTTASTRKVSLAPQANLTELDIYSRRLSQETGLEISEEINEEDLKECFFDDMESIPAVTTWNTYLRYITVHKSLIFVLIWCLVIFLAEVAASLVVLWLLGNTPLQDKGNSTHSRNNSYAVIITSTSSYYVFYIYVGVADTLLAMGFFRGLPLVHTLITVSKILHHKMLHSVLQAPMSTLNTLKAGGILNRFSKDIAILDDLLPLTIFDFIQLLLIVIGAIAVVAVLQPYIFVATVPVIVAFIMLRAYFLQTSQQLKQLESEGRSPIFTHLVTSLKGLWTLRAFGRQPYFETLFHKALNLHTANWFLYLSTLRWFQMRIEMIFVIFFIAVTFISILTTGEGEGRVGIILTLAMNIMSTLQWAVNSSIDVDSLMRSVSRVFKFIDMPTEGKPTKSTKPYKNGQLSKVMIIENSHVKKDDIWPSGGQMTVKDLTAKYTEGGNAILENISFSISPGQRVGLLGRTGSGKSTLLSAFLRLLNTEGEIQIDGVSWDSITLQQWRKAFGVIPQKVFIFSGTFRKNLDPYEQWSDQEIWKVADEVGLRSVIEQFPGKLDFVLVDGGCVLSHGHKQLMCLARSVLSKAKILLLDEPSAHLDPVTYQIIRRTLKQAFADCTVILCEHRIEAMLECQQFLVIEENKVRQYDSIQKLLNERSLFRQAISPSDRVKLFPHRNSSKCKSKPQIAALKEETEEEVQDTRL
Procedure: As discussed above, Ussing measurements can be used to measure CFTR activity. In this method, primary lung epithelial cells (hBEs) homozygous for the Cystic Fibrosis-causing ΔF508 mutation are differentiated for a minimum of 4 weeks in an air-liquid interface on SnapWell filter plates prior to the Ussing measurements. Cells are apically mucus-washed for 30 minutes prior to treatment with compounds. The basolateral media is removed and replaced with media containing the compound of interest diluted to its final concentration from DMSO stocks. Treated cells are incubated at 37° C. and 5% CO2 for 24 hours. At the end of the treatment period, the cells on filters are transferred to the Ussing chamber and equilibrated for 30 minutes. The short-circuit current is measured in voltage clamp-mode (Vhold=0 mV), and the entire assay is conducted at a temperature of 36° C.-36.5° C. Once the voltages stabilized, the chambers are clamped, and data is recorded by pulse readings every 5 seconds. Following baseline current stabilization, the following additions can be applied and the changes in current and resistance of the cells can be monitored: • 1. Benzamil to the apical chamber to inhibit ENaC sodium channel. • 2. Forskolin to both chambers to activate ΔF508-CFTR by phosphorylation. • 3. Genistein to both chambers to potentiate ΔF508-CFTR channel opening. • 4. CFTRinh-172 to the apical chamber to inhibit ΔF508-CFTR Cl-conductance.
The inhibitable current (that current that is blocked by CFTRinh-172) is measured as the specific activity of the ΔF508-CFTR channel, and increases in response to compound in this activity over that observed in vehicle-treated samples are identified as the correction of ΔF508-CFTR function imparted by the compound tested.

ΔF508-CFTR [2] = molecular target: T1, ΔF508-CFTR; test: hBE equivalent current (Ieq) assay; format: cell-based; conditions: AUC of equivalent chloride current, primary hBE homozygous ΔF508, 24 h treatment
Procedure: Primary lung epithelial cells homozygous for the Cystic Fibrosis-causing ΔF508 mutation were differentiated for a minimum of 4 weeks in an air-liquid interface on Costar 24 well HTS filter plates prior to the equivalent current (Ieq) measurements. Cells were apically mucus-washed for 30 minutes 24 h prior to treatment with compounds. The basolateral media was removed and replaced with media containing the compound of interest diluted to its final concentration from DMSO stocks. Treated cells were incubated at 37° C. and 5% CO2 for 24 hours. At the end of the treatment period, the media was changed to the Ieq experimental solution for 30 minutes before the experiment and plates are maintained in a CO2-free incubator during this period. The plates containing the cells were then placed in pre-warmed heating blocks at 36° C.±0.5 for 15 minutes before measurements are taken. The transepithelial voltage (VT) and conductance (GT) were measured using a custom 24 channel current clamp (TECC-24) with 24 well electrode manifold. The Ieq assay measurements were made following additions with standardized time periods: • 1. The baseline VT and GT values were measured for approximately 20 minutes. • 2. Benzamil was added to block ENaC for 15 minutes. • 3. Forskolin plus VX-770 were added to maximally activate ΔF508-CFTR for 27 minutes. • 4. Bumetanide was added to inhibit the NaK2Cl cotransporter and shut-off secretion of chloride.
The activity data captured was the area under the curve (AUC) for the traces of the equivalent chloride current. The AUC was collected from the time of the forskolin/VX-770 addition until the inhibition by bumetanide addition. Correction in response to compound treatment was scored as the increase in the AUC for compound-treated samples over that of vehicle-treated samples. The results are shown below in Table 2 (++indicates activity ≧25% run at 10 uM of VX-809 at 1 uM; +indicates activity 10 to <25% run at 10 uM of VX-809 at 1 uM; ** indicates activity ≧200% of VX-809 (1 uM) with compound at 10 uM and VX-809 at 1 uM; * indicates activity 100-200% of VX-809 (1 uM) with compound at 10 uM and VX-809 at 1 uM)

[3] = compound alone at 10 uM, relative to VX-809 at 1 uM
[4] = compound at 10 uM together with VX-809 at 1 uM, relative to VX-809 (1 uM)

Structure (SMILES)	Ussing (ΔF508-CFTR [1]; [3])	Ussing (ΔF508-CFTR [1]; [4])	Ieq Activity (ΔF508-CFTR [2]; [3])	Ieq Activity (ΔF508-CFTR [2]; [4])
O=C(NCCc1nnc(CO)s1)c1cc(-c2ccccc2)on1 [Compound A2, N-(2-(5-(hydroxymethyl)-1,3,4-thiadiazol-2-yl)ethyl)-5-phenylisoxazole-3-carboxamide]	++ (++indicates activity ≧25% run at 10 uM of VX-809 at 1 uM)	** (** indicates activity ≧200% of VX-809 (1 uM) with compound at 10 uM and VX-809 at 1 uM)	++ (++indicates activity ≧25% run at 10 uM of VX-809 at 1 uM)	** (** indicates activity ≧200% of VX-809 (1 uM) with compound at 10 uM and VX-809 at 1 uM)
C[C@H](O)c1nnc(CCNC(=O)c2cc(-c3ccccc3)on2)s1 [Compound A17, (S)-N-(2-(5-(1-hydroxyethyl)-1,3,4-thiadiazol-2-yl)ethyl)-5-phenylisoxazole-3-carboxamide]		** (** indicates activity ≧200% of VX-809 (1 uM) with compound at 10 uM and VX-809 at 1 uM)		** (** indicates activity ≧200% of VX-809 (1 uM) with compound at 10 uM and VX-809 at 1 uM)
C[C@H](O)c1nnc(CCNC(=O)c2cc(-c3ccccc3)on2)o1 [Compound A18, (S)-N-(2-(5-(1-hydroxyethyl)-1,3,4-oxadiazol-2-yl)ethyl)-5-phenylisoxazole-3-carboxamide]		** (** indicates activity ≧200% of VX-809 (1 uM) with compound at 10 uM and VX-809 at 1 uM)		** (** indicates activity ≧200% of VX-809 (1 uM) with compound at 10 uM and VX-809 at 1 uM)
O=C(NCCc1nnc([C@H](O)CO)o1)c1cc(-c2ccccc2)on1 [Compound A19, (R)-N-(2-(5-(1,2-dihydroxyethyl)-1,3,4-oxadiazol-2-yl)ethyl)-5-phenylisoxazole-3-carboxamide]		** (** indicates activity ≧200% of VX-809 (1 uM) with compound at 10 uM and VX-809 at 1 uM)		** (** indicates activity ≧200% of VX-809 (1 uM) with compound at 10 uM and VX-809 at 1 uM)
O=C(NCCc1nnc([C@H](O)CO)s1)c1cc(-c2ccccc2)on1 [Compound A20, (R)-N-(2-(5-(1,2-dihydroxyethyl)-1,3,4-thiadiazol-2-yl)ethyl)-5-phenylisoxazole-3-carboxamide]		** (** indicates activity ≧200% of VX-809 (1 uM) with compound at 10 uM and VX-809 at 1 uM)		** (** indicates activity ≧200% of VX-809 (1 uM) with compound at 10 uM and VX-809 at 1 uM)
O=C(NCCc1nnc([C@@H](O)CO)s1)c1cc(-c2ccccc2)on1 [Compound A21, (S)-N-(2-(5-(1,2-dihydroxyethyl)-1,3,4-thiadiazol-2-yl)ethyl)-5-phenyl isoxazole-3-carboxamide]		** (** indicates activity ≧200% of VX-809 (1 uM) with compound at 10 uM and VX-809 at 1 uM)		** (** indicates activity ≧200% of VX-809 (1 uM) with compound at 10 uM and VX-809 at 1 uM)
O=C(NCCc1nnc([C@@H](O)CO)o1)c1cc(-c2ccccc2)on1 [Compound A22, (S)-N-(2-(5-(1,2-dihydroxyethyl)-1,3,4-oxadiazol-2-yl)ethyl)-5-phenyl isoxazole-3-carboxamide carboxamide]		** (** indicates activity ≧200% of VX-809 (1 uM) with compound at 10 uM and VX-809 at 1 uM)		** (** indicates activity ≧200% of VX-809 (1 uM) with compound at 10 uM and VX-809 at 1 uM)
